Assay results reported in US20240299299A1, “COMPOSITIONS AND METHODS FOR INCREASING THE EFFICACY OF IMMUNOTHERAPIES AND VACCINES” (The Regents of the University of Michigan, priority 2021, published 2024).
Each block holds one compound with its values, some of them ahead of it.

Assays:
[1] = test system: tumor; conditions: reported in literature (Geiger et al.); cited from earlier work
[2] = test system: OT-I CD8+ T cells; assay: CD8+ T cell survival upon IL-2 withdrawal (Annexin V/PI); format: cell-based, mice; conditions: dependent on the dose of metabolites
Experimental: FIG. 4: a) OT-I CD8+ T cells were cultured with different metabolites in vitro as indicated, b,c) shown are the level of survival CD8+ T cells (Annexin V^−PI^−) as well as the representative flow cytometry plots on day 5.5. Data represent the mean±s.e.m. (n=5).
Splenocytes from OT-I mice were obtained aseptically. The cells were cultured in 96-well plates (1×10^5 cells per well). For Tcm differentiation study, cells were activated with SIINFEKL peptide (4×10^−9M) in the presence of various metabolites (arginine: 3 mM; 3-methylhistidine: 3 mM; N-acetylneuraminate: 100 μM; disodium sebacate: 100 μM; DHB: 100 μM; pantothenate: 100 μM; γ-aminobutyric acid: 100 μM; glycerol: 100 μM; AICAR: 100 μM, sodium ferulate: 100 μM) for 3 days. Then cells were washed three times with T-cell medium and further cultured with IL-2 (10 ng ml^−1; PeproTech) in the presence of metabolites for 5 days. The cells were then washed twice and re-activated with SIINFEKL peptide (10 μM) for 2 h. The suspension cells were collected, blocked with CD16/32 antibody and stained with the fixable viability dye eFluor 450, FITC-CD44 rat anti-human/mouse and PE-CD62L monoclonal antibody. To test if the central memory CD8+ T cells differentiation is dependent on dendritic cells, CD8 T cells isolated from the spleen in OT-I mice were incubated in the 96-well plate, which was precoated with anti-hamster IgG antibody. […] (1 μg mL^−1) and IL-2 (100 U mL^−1) were added into each well in the presence of 3-methylhistidine (3 mM), DHB (100 μM), or sodium ferulate (100 μM) for 2 days. Then cells were washed for three times to remove α-CD3/α-CD28 antibodies and further incubated with metabolites and IL-2 (10 ng ml^−1) for 5 days. Thereafter, cells were collected for central memory CD8^+ T cells analysis. For CD8^+ T cells survival study, cells were activated with antigen peptide as above, following with thoroughly washing, and incubation in presence of IL-2 for 2 days. […] Tcf1^+CD8^+, CD44^+CD62L^+CD8^+ and survival (stained with Annexin V-APC and PI) T cells were detected via flow cytometry.

[3] = test system: OT-I CD8+ T cells; assay: In vitro central memory (Tcm) differentiation of OT-I CD8+ T cells activated with SIINFEKL peptide and IL-2 with metabolites; format: cell-based, mice; conditions: day 8; metabolite-supplemented medium (arginine 3 mM, 3-methylhistidine 3 mM, DHB 100 μM, sodium ferulate 100 μM)
Experimental: FIG. 2: a) OT-I CD8+ T cells were cultured with different metabolites in vitro as indicated, b,c) shown is the frequency of CD44^+CD62L^+ Tcm CD8+ T cells on day 8. d) OT-I CD8+ T cells were activated with α-CD3/α-CD28 antibodies in presence of metabolites as indicated and shown is the Tcm CD8+ T cells on day 7. Data represent the mean±s.e.m. (n=5).
Splenocytes from OT-I mice were obtained aseptically. The cells were cultured in 96-well plates (1×10^5 cells per well). For Tcm differentiation study, cells were activated with SIINFEKL peptide (4×10^−9M) in the presence of various metabolites (arginine: 3 mM; 3-methylhistidine: 3 mM; N-acetylneuraminate: 100 μM; disodium sebacate: 100 μM; DHB: 100 μM; pantothenate: 100 μM; γ-aminobutyric acid: 100 μM; glycerol: 100 μM; AICAR: 100 μM, sodium ferulate: 100 μM) for 3 days. Then cells were washed three times with T-cell medium and further cultured with IL-2 (10 ng ml^−1; PeproTech) in the presence of metabolites for 5 days. The cells were then washed twice and re-activated with SIINFEKL peptide (10 μM) for 2 h. The suspension cells were collected, blocked with CD16/32 antibody and stained with the fixable viability dye eFluor 450, FITC-CD44 rat anti-human/mouse and PE-CD62L monoclonal antibody. To test if the central memory CD8+ T cells differentiation is dependent on dendritic cells, CD8 T cells isolated from the spleen in OT-I mice were incubated in the 96-well plate, which was precoated with anti-hamster IgG antibody. […] (1 μg mL^−1) and IL-2 (100 U mL^−1) were added into each well in the presence of 3-methylhistidine (3 mM), DHB (100 μM), or sodium ferulate (100 μM) for 2 days. Then cells were washed for three times to remove α-CD3/α-CD28 antibodies and further incubated with metabolites and IL-2 (10 ng ml^−1) for 5 days. Thereafter, cells were collected for central memory CD8^+ T cells analysis. For CD8^+ T cells survival study, cells were activated with antigen peptide as above, following with thoroughly washing, and incubation in presence of IL-2 for 2 days. Metabolites were added during this incubation (arginine: 3 mM, 1 mM; 3-methylhistidine: 3 mM, 1 mM, 500 μM, 100 μM; N-acetylneuraminate: 100 μM; disodium sebacate: 100 μM; DHB: 100 μM, 50 μM, 20 μM; pantothenate: 100 μM; γ-aminobutyric acid: 100 μM; glycerol: 100 μM; AICAR: 100 μM). Then cells were further incubated in absence of both IL-2 and metabolites for 36 h to induce the apoptosis/dead. For Tcf1^+CD8^+ differentiation study, cells were activated with antigen peptide as above, followed by thoroughly washing, and incubation with metabolites in presence of IL-2 for 3 days. […] Tcf1^+CD8^+, CD44^+CD62L^+CD8^+ and survival (stained with Annexin V-APC and PI) T cells were detected via flow cytometry.

[4] = Encapsulation of DHB-based prodrugs in lipid-based formulation; format: physicochemical; conditions: oleic acid, Tween 80, PBS emulsion
Experimental: The DHB-based prodrugs were synthesized by the Medicinal Chemistry Core in University of Michigan. To prepare the formulation, the prodrug #201 or #905 (4 mg) was added to the mixture of oleic acid (45 μL) and Tween 80 (25 μL) and incubated overnight to equilibrate and allow the prodrug to dissolve. Then an aqueous phase consisting of PBS buffer was added, and the formulation emulsified by ultrasonication with an ultrasonic processor.

[5] = test system: CT26 colon carcinoma cells; assay: CT26 tumor model, oral prodrug-based lipid formulation plus α-PD-1; format: in vivo, BALB/c mice
Experimental: FIG. 9: a) Scheme showing the preparation of formulation encapsulating DHB prodrug. b) Therapeutic treatment regimen. BALB/c mice were s.c. inoculated with 1.5×10^5 CT26 colon carcinoma cells. The prodrug #201 (0.5 mg per dose) or #905 (1 mg per dose) were orally administrated every other day, respectively. 100 μg α-PD-1 was injected i.p. on days 11, 15, and 19. Shown are the (c) average tumor growth; AH1-specific CD8+ T cells in PBMCs on days (d) 18 and (e) 24. Tumor microenvironment analysis: (f) immune cells (CD45^+ cells) infiltration, (g) CD8^+ T cells, (h) CD44^+CD62L^+ central memory CD8+ T cells, and (i) AH1-specific CD8^+ T cells in tumor tissue on day 25. Data represent the mean±s.e.m. (n=5).
The CT26 tumor model was established as above. The formulation containing prodrug #201 or #905 was orally administered starting on day 8 and performed every other day. α-PD-1 antibody (100 μg per dose) was i.p. injected on days 11, 15, and 19. The PBMCs were obtained on days 18 and 24 and stained with PE-tagged peptide-MHC tetramer (H-2L^d-restricted SPSYVYHQF). Mice were euthanized on day 25 and tumor tissues were cut into small pieces and incubated with collagenase type IV (1 mg ml-1) and DNase I (0.1 mg ml-1) under gentle shaking. After 30 min, the cell suspension was filtered through a 70-μm strainer. The cells were washed with fluorescence-activated cell sorting (FACS) buffer and blocked with CD16/32 antibody. The cells were then stained with the designated antibodies: efluor450, FITC-CD44 rat anti-human/mouse, PE-CD62L monoclonal antibody, and APC-CD8 rat anti-mouse, PE-Tcf1/Tcf7 rabbit monoclonal antibody, APC-efluor780-Cd45 Rat anti Mouse (Clone: 30 F11), PE-AH1-specific tetramer. Cells were analyzed by flow cytometry.

SMILES: N=C(N)NCCC[C@H](N)C(=O)O [L-arginine]
- antitumor effect in vivo [1]: improve the antitumor effect in vivo
- survival of activated CD8+ T cells [2]: significantly increased the survival
- differentiation of CD44+CD62L+ central memory CD8+ T cells [3]: significantly increased the differentiation

- encapsulation in lipid-based dose forms [4]: can be successfully encapsulated
SMILES: CCOC(=O)c1ccc(OC(=O)C(C)(C)C)c(OC(=O)C(C)(C)C)c1 [Prodrug #201, 4-(ethoxycarbonyl)-1,2-phenylene bis(2,2-dimethylpropanoate)]
- infiltration of immune cells (CD45+ cells), AH1-specific CD8+ T cells and CD44+CD62L+ central memory CD8+ T cells in tumor tissue ([5]; oral formulation plus α-PD-1, day 25): promoted the infiltration
- frequency of AH1-specific CD8+ T cells among PBMCs ([5]; oral formulation plus α-PD-1, days 18 and 24): increased the frequency
- tumor growth ([5]; orally administered lipid formulation, 0.5 mg per dose every other day, plus α-PD-1): substantially slowed down the tumor growth
